How the values were obtained:
IIIB-WT = test: Antiviral activity in MT4 cells, HIV-1 p24 core antigen quantitation; assay type: cell-based; conditions: Human immunodeficiency virus 1, IIIB, 96 h, infection 0.001-0.005 TCID50 per cell, p24 antigen at four days post-infection, concentration inhibiting 90% of p24 production
Method: (§1) Assessment of the antiviral activities of the Compounds 1 and 290 versus the panel of viruses used in these studies was carried out in MT4 cells. Cells were batch infected with the appropriate virus stock at a multiplicity of infection of 0.001-0.005 TCID50 per cell for 2 hours at 37° C. The cells were washed, resuspended in RPMI/FBS and plated in 24 well dishes at a final concentration of 1.5×10^5 cells/ml to which were added 2× drug treatments prepared in RPMI/FBS. All treatment concentrations were tested in duplicate. The final DMSO concentration for all treatments or vehicle control cultures was 0.1%. At four days post-infection culture fluid samples were collected for HIV-1 p24 core antigen quantitation to determine antiviral effects. Linear regression analysis was used to calculate the drug concentration necessary to inhibit 90% (inhibitory concentration 90, IC90) of non-drug treated p24 antigen production.

MF-delavirdine (P236L) = test: as above; assay type: cell-based; conditions: Human immunodeficiency virus 1, MT4, 96 h, read-out: MF-delavirdine (P236L) IC90 (μM)
Method: as §1

## CSc1cc(N)nc(S[C@@H](C)c2cc3ccoc3cn2)n1 [Compound #1]
IIIB-WT
  IC90: 8 nM
MF-delavirdine (P236L)
  IC90: 0.02 µM

## CSc1cc(N)nc(S[C@@H](C)c2cc3c(C)coc3cn2)n1 [Compound #290, (S)-(-)-4-Amino-6-methylthio-2-(1-(3-methylfuro[2,3-c]pyridine-5-yl)ethyl)thio-pyrimidine]
IIIB-WT
  IC90: 4 nM
MF-delavirdine (P236L)
  IC90: 0.02 µM

Source: patent publication US6124306A, “Thioalkyl alpha substituted pyrimidine compounds” (Pharmacia & Upjohn Company, priority 1998, dated 2000)
